In paper PMC9299836 (eLife, 2022):

Target: mGluR2 (Mus musculus, UniProt Q14BI2, A548F)
Assay: smFRET of azi-CRD: cross-correlation of donor and acceptor intensities (CRD dynamics) and HMM transition density plots;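 further: single detergent-solubilized receptors captured on antibody-coated flow cells via C-terminal FLAG-tag, imaged by smFRET, donor and acceptor intensity traces from three independent biological replicates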
Conditions: for CRD dynamics by cross-correlation of donor and acceptor intensities: azi-CRD

Sequence of mGluR2 (Q14BI2 19-872 A548F): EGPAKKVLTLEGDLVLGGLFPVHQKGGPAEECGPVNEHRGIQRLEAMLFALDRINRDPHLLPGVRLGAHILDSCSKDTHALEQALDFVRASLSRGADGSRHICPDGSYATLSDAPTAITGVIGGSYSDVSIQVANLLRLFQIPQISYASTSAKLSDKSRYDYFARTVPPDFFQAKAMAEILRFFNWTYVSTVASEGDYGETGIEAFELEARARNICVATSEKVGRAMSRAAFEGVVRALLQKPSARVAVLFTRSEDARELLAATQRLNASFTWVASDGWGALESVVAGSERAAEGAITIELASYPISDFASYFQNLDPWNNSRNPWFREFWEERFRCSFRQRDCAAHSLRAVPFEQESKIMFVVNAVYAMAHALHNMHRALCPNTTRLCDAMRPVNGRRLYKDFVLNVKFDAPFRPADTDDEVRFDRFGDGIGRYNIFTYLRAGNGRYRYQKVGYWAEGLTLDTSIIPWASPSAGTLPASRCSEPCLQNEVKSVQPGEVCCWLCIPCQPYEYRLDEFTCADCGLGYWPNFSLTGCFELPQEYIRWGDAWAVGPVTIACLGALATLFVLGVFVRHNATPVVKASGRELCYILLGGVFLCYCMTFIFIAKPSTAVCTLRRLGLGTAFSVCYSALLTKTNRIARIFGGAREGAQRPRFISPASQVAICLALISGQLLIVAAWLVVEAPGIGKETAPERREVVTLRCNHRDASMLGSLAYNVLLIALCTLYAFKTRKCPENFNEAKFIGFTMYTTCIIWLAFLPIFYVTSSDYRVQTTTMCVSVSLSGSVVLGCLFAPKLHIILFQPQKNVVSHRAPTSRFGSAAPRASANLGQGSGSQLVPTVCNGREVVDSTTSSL

MNI-137
Cross Correlation, Mean (0μM Glutamate + GPT/Pyruvate + 5μM MNI-137, Time 0.2 s): -0.028 | Cross Correlation, Mean (0μM Glutamate + GPT/Pyruvate + 5μM MNI-137, Time 0.25 s): -0.03232 | Cross Correlation, Mean (0μM Glutamate + GPT/Pyruvate + 5μM MNI-137, Time 0.3 s): -0.03245 | Cross Correlation, Mean (0μM Glutamate + GPT/Pyruvate + 5μM MNI-137, Time 0.35 s): -0.03285 | Cross Correlation, Mean (0μM Glutamate + GPT/Pyruvate + 5μM MNI-137, Time 0.4 s): -0.02992 | Cross Correlation, Mean (0μM Glutamate + GPT/Pyruvate + 5μM MNI-137, Time 0.45 s): -0.02563 | Cross Correlation, Mean (0μM Glutamate + GPT/Pyruvate + 5μM MNI-137, Time 0.5 s): -0.0232 | Cross Correlation, Mean (0μM Glutamate + GPT/Pyruvate + 5μM MNI-137, Time 0.55 s): -0.0254 | Cross Correlation, Mean (0μM Glutamate + GPT/Pyruvate + 5μM MNI-137, Time 0.6 s): -0.02539 | Cross Correlation, Mean (0μM Glutamate + GPT/Pyruvate + 5μM MNI-137, Time 0.65 s): -0.02363 | Cross Correlation, Mean (0μM Glutamate + GPT/Pyruvate + 5μM MNI-137, Time 0.7 s): -0.02361 | Cross Correlation, Mean (0μM Glutamate + GPT/Pyruvate + 5μM MNI-137, Time 0.8 s): -0.02074 | Cross Correlation, Mean (0μM Glutamate + GPT/Pyruvate + 5μM MNI-137, Time 0.85 s): -0.0233 | Cross Correlation, Mean (0μM Glutamate + GPT/Pyruvate + 5μM MNI-137, Time 0.9 s): -0.02522 | Cross Correlation, Mean (0μM Glutamate + GPT/Pyruvate + 5μM MNI-137, Time 0.95 s): -0.02254 | Cross Correlation, Mean (0μM Glutamate + GPT/Pyruvate + 5μM MNI-137, Time 1 s): -0.02263 | Cross Correlation, Mean (0μM Glutamate + GPT/Pyruvate + 5μM MNI-137, Time 1.05 s): -0.01654 | Cross Correlation, Mean (0μM Glutamate + GPT/Pyruvate + 5μM MNI-137, Time 1.1 s): -0.01694 | Cross Correlation, Mean (0μM Glutamate + GPT/Pyruvate + 5μM MNI-137, Time 1.15 s): -0.0245 | Cross Correlation, Mean (0μM Glutamate + GPT/Pyruvate + 5μM MNI-137, Time 1.2 s): -0.02011 | Cross Correlation, Mean (0μM Glutamate + GPT/Pyruvate + 5μM MNI-137, Time 1.25 s): -0.02479 | Cross Correlation, Mean (0μM Glutamate + GPT/Pyruvate + 5μM MNI-137, Time 1.3 s): -0.01941 | Cross Correlation, Mean (0μM Glutamate + GPT/Pyruvate + 5μM MNI-137, Time 1.35 s): -0.01897 | Cross Correlation, Mean (0μM Glutamate + GPT/Pyruvate + 5μM MNI-137, Time 1.4 s): -0.02381 | Cross Correlation, Mean (0μM Glutamate + GPT/Pyruvate + 5μM MNI-137, Time 1.45 s): -0.01493 | Cross Correlation, Mean (0μM Glutamate + GPT/Pyruvate + 5μM MNI-137, Time 1.5 s): -0.01697 | Cross Correlation, Mean (0μM Glutamate + GPT/Pyruvate + 5μM MNI-137, Time 1.6 s): -0.01709 | Cross Correlation, Mean (0μM Glutamate + GPT/Pyruvate + 5μM MNI-137, Time 1.65 s): -0.01348 | Cross Correlation, Mean (0μM Glutamate + GPT/Pyruvate + 5μM MNI-137, Time 1.7 s): -0.01427 | Cross Correlation, Mean (0μM Glutamate + GPT/Pyruvate + 5μM MNI-137, Time 1.75 s): -0.0161 | Cross Correlation, Mean (0μM Glutamate + GPT/Pyruvate + 5μM MNI-137, Time 1.8 s): -0.01106 | Cross Correlation, Mean (0μM Glutamate + GPT/Pyruvate + 5μM MNI-137, Time 1.85 s): -0.00832 | Cross Correlation, Mean (0μM Glutamate + GPT/Pyruvate + 5μM MNI-137, Time 1.9 s): -0.01466 | Cross Correlation, Mean (15μM Glutamate + 5μM MNI-137, Time 0.2 s): -0.09437 | Cross Correlation, Mean (15μM Glutamate + 5μM MNI-137, Time 0.25 s): -0.08281 | Cross Correlation, Mean (15μM Glutamate + 5μM MNI-137, Time 0.3 s): -0.0732 | Cross Correlation, Mean (15μM Glutamate + 5μM MNI-137, Time 0.35 s): -0.06697 | Cross Correlation, Mean (15μM Glutamate + 5μM MNI-137, Time 0.4 s): -0.05965 | Cross Correlation, Mean (15μM Glutamate + 5μM MNI-137, Time 0.45 s): -0.05857 | Cross Correlation, Mean (15μM Glutamate + 5μM MNI-137, Time 0.5 s): -0.05707 | Cross Correlation, Mean (15μM Glutamate + 5μM MNI-137, Time 0.55 s): -0.05428 | Cross Correlation, Mean (15μM Glutamate + 5μM MNI-137, Time 0.6 s): -0.04785 | Cross Correlation, Mean (15μM Glutamate + 5μM MNI-137, Time 0.65 s): -0.04876 | Cross Correlation, Mean (15μM Glutamate + 5μM MNI-137, Time 0.7 s): -0.04192 | Cross Correlation, Mean (15μM Glutamate + 5μM MNI-137, Time 0.75 s): -0.0438 | Cross Correlation, Mean (15μM Glutamate + 5μM MNI-137, Time 0.8 s): -0.04286 | Cross Correlation, Mean (15μM Glutamate + 5μM MNI-137, Time 0.85 s): -0.04147 | Cross Correlation, Mean (15μM Glutamate + 5μM MNI-137, Time 0.9 s): -0.0389 | Cross Correlation, Mean (15μM Glutamate + 5μM MNI-137, Time 0.95 s): -0.03855 | Cross Correlation, Mean (15μM Glutamate + 5μM MNI-137, Time 1 s): -0.03542 | Cross Correlation, Mean (15μM Glutamate + 5μM MNI-137, Time 1.05 s): -0.03118 | Cross Correlation, Mean (15μM Glutamate + 5μM MNI-137, Time 1.1 s): -0.03249 | Cross Correlation, Mean (15μM Glutamate + 5μM MNI-137, Time 1.15 s): -0.02794 | Cross Correlation, Mean (15μM Glutamate + 5μM MNI-137, Time 1.2 s): -0.03365 | Cross Correlation, Mean (15μM Glutamate + 5μM MNI-137, Time 1.25 s): -0.03207 | Cross Correlation, Mean (15μM Glutamate + 5μM MNI-137, Time 1.3 s): -0.02844 | Cross Correlation, Mean (15μM Glutamate + 5μM MNI-137, Time 1.35 s): -0.02868 | Cross Correlation, Mean (15μM Glutamate + 5μM MNI-137, Time 1.4 s): -0.02437 | Cross Correlation, Mean (15μM Glutamate + 5μM MNI-137, Time 1.45 s): -0.02342 | Cross Correlation, Mean (15μM Glutamate + 5μM MNI-137, Time 1.55 s): -0.02529 | Cross Correlation, Mean (15μM Glutamate + 5μM MNI-137, Time 1.6 s): -0.02454 | Cross Correlation, Mean (15μM Glutamate + 5μM MNI-137, Time 1.65 s): -0.02035 | Cross Correlation, Mean (15μM Glutamate + 5μM MNI-137, Time 1.75 s): -0.02381 | Cross Correlation, Mean (15μM Glutamate + 5μM MNI-137, Time 1.8 s): -0.02039 | Cross Correlation, Mean (15μM Glutamate + 5μM MNI-137, Time 1.85 s): -0.02364 | Cross Correlation, Mean (15μM Glutamate + 5μM MNI-137, Time 1.9 s): -0.02018 | Cross Correlation, Mean (15μM Glutamate + 5μM MNI-137, Time 1.95 s): -0.01877 | Cross Correlation, Mean (1000μM Glutamate + 5μM MNI-137, Time 0.2 s): -0.2112 | Cross Correlation, Mean (1000μM Glutamate + 5μM MNI-137, Time 0.25 s): -0.1919 | Cross Correlation, Mean (1000μM Glutamate + 5μM MNI-137, Time 0.3 s): -0.1758 | Cross Correlation, Mean (1000μM Glutamate + 5μM MNI-137, Time 0.35 s): -0.1629 | Cross Correlation, Mean (1000μM Glutamate + 5μM MNI-137, Time 0.4 s): -0.1514 | Cross Correlation, Mean (1000μM Glutamate + 5μM MNI-137, Time 0.45 s): -0.1426 | Cross Correlation, Mean (1000μM Glutamate + 5μM MNI-137, Time 0.5 s): -0.1307 | Cross Correlation, Mean (1000μM Glutamate + 5μM MNI-137, Time 0.55 s): -0.1241 | Cross Correlation, Mean (1000μM Glutamate + 5μM MNI-137, Time 0.6 s): -0.1177 | Cross Correlation, Mean (1000μM Glutamate + 5μM MNI-137, Time 0.65 s): -0.1093 | Cross Correlation, Mean (1000μM Glutamate + 5μM MNI-137, Time 0.7 s): -0.1013 | Cross Correlation, Mean (1000μM Glutamate + 5μM MNI-137, Time 0.75 s): -0.09952 | Cross Correlation, Mean (1000μM Glutamate + 5μM MNI-137, Time 0.8 s): -0.09295 | Cross Correlation, Mean (1000μM Glutamate + 5μM MNI-137, Time 0.85 s): -0.08726 | Cross Correlation, Mean (1000μM Glutamate + 5μM MNI-137, Time 0.9 s): -0.08538 | Cross Correlation, Mean (1000μM Glutamate + 5μM MNI-137, Time 0.95 s): -0.07938 | Cross Correlation, Mean (1000μM Glutamate + 5μM MNI-137, Time 1 s): -0.07503 | Cross Correlation, Mean (1000μM Glutamate + 5μM MNI-137, Time 1.05 s): -0.07213 | Cross Correlation, Mean (1000μM Glutamate + 5μM MNI-137, Time 1.1 s): -0.06374 | Cross Correlation, Mean (1000μM Glutamate + 5μM MNI-137, Time 1.15 s): -0.06369 | Cross Correlation, Mean (1000μM Glutamate + 5μM MNI-137, Time 1.2 s): -0.0627 | Cross Correlation, Mean (1000μM Glutamate + 5μM MNI-137, Time 1.3 s): -0.05443 | Cross Correlation, Mean (1000μM Glutamate + 5μM MNI-137, Time 1.35 s): -0.05075 | Cross Correlation, Mean (1000μM Glutamate + 5μM MNI-137, Time 1.4 s): -0.05008 | Cross Correlation, Mean (1000μM Glutamate + 5μM MNI-137, Time 1.45 s): -0.0474 | Cross Correlation, Mean (1000μM Glutamate + 5μM MNI-137, Time 1.5 s): -0.04472 | Cross Correlation, Mean (1000μM Glutamate + 5μM MNI-137, Time 1.55 s): -0.04463 | Cross Correlation, Mean (1000μM Glutamate + 5μM MNI-137, Time 1.65 s): -0.03966 | Cross Correlation, Mean (1000μM Glutamate + 5μM MNI-137, Time 1.7 s): -0.03894 | Cross Correlation, Mean (1000μM Glutamate + 5μM MNI-137, Time 1.75 s): -0.03942 | Cross Correlation, Mean (1000μM Glutamate + 5μM MNI-137, Time 1.8 s): -0.03907 | Cross Correlation, Mean (1000μM Glutamate + 5μM MNI-137, Time 1.9 s): -0.0321 | Cross Correlation, Mean (1000μM Glutamate + 5μM MNI-137, Time 1.95 s): -0.034 | CRD dynamics by cross-correlation of donor and acceptor intensities (5 μM modulator with 15 μM and 1 mM glutamate): glutamate concentration-dependent increase in the CRD dynamics | CRD dynamics by cross-correlation of donor and acceptor intensities (5 μM modulator, absence of glutamate): reduced CRD dynamics
